Experimental data from PubChem BioAssay AID1919015 (Molecular Pharmacology Branch, DTP, NCI, 2023).
pIC50: −log10 of the molar value.

Tested on: OVCAR-5 complex spheroids with HUVEC/MSC, viability, % test/control
Test: Anticancer human tumor OVCAR-5 cell line growth inhibition [AhR];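 also: spheroids exposed to compounds for 7 days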;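 as to viability, T/C: 100% = DMSO vehicle control wells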
Details: for viability, T/C: stronger effect = lower value
Description: Multicellular complex tumor spheroid response to aryl hydrocarbon receptor antagonists in combination with a variety of drugs and investigational agents in selected tumor cell lines
The current study was undertaken to assess response to aryl hydrocarbon receptor antagonists in combination with standard-of-care drugs and investigational agents in solid tumor complex spheroid models. Complex spheroids include a stromal component modeled by human endothelial cells (HUVEC) and fibroblasts modeled by human mesenchymal stem cells (MSCs). The concentration ranges selected for each drug and investigational agent were based upon clinically achievable concentrations if the clinical Cmax of the agent was known.
Compounds. The drugs and investigational agents: BAY 2416964 (NSC825713), GNF351 (NSC835774), CH-223191 (NSC835775), CPI-455 (NSC825282), aza-TdCyd (NSC777586), decitabine (NSC127716), belinostat (NSC758774), entinostat (NSC756642), pevonedistat (NSC761192), tazemetostat (NSC777109), talazoparib (NSC765396), olaparib (NSC753686), selinexor (NSC780203), nedisertib (M3814, NSC802822), bortezomib (NSC756655), venetoclax (NSC766270), doxorubicin (NSC123127), elimusertib (BAY189344, NSC800525), ceralasertib (AZD6738, NSC777638), TAK-243 (NSC785004), alisertib (NSC759677), etoposide (NSC141540), topotecan (NSC609699), eribulin (NSC707389), gemcitabine (NSC613327), carboplatin (NSC241240), cisplatin (NSC119875), and SN-38 (NSC673596) were obtained from the National Cancer Institute (NCI) Developmental Therapeutics Program Chemical Repository (32). The FDA-approved anticancer drug set is available from the Developmental Therapeutics Program at https://dtp.cancer.gov/organization/dscb/obtaining/available plates.htm. […] The stock solutions were prepared in dimethyl sulfoxide (DMSO, Sigma-Aldrich, St. Louis, MO, cat. D2650), except for the platinum compounds which were prepared in saline (Quality Biological, Gaithersburg, MD, cat. 114-055-101), at 800-fold the tested concentration and stored at -70 degrees C prior to their use. All drugs and investigational agents were tested over a range starting from a high concentration at or near the clinical Cmax and decreasing in half-log increments. If the clinical Cmax for an agent had not been determined, the highest concentration tested was 10 microM (Table 1).
Cell Culture. All cells were maintained in an incubator at 37 degrees C and 5% CO2 with 95% humidity. The PDC lines were cultured according to standard operating procedures established by the NCI PDMR (https://pdmr.cancer.gov). Briefly, all PDCs were thawed and cultured in Matrigel-coated flasks prepared with a working solution of 1X Ham's F-12 nutrient mix, without supplementation (Invitrogen, Waltham, MA, cat. 11765054), 100 U/mL penicillin-streptomycin (Invitrogen, cat. 15140122), and 2.5% Matrigel (Corning Inc., Corning, NY, cat. 354248) for the first three passages. All PDCs were cultured in complete DMEM/F-12 media containing advanced DMEM/F-12 (Invitrogen, cat. 12634028), 4.9% defined fetal bovine serum, heat inactivated (HyClone Laboratories Inc., Logan, UT, cat. SH30070.03HI), 389 ng/mL hydrocortisone (Sigma-Aldrich, cat. H4001), 9.7 ng/mL human EGF recombinant protein (Invitrogen, cat. PHG0313), 23.4 microg/mL adenine (Sigma-Aldrich, cat. A2786), 97.3 U/mL penicillin-streptomycin (Invitrogen, cat. 15140122), 1.9 mM L-glutamine (Invitrogen, cat. 25030081), and 9.7 microM Y-27632 dihydrochloride (Tocris Bioscience, Bristol, United Kingdom, cat. 1254). The PDCs were cultured in complete DMEM/F12 media without 10 microM Y-27632 dihydrochloride for at least two passages prior to the screen. The established cell lines NCI-H1341 and […] were cultured in DMEM/F-12, HEPES (Invitrogen, cat. 11330032), 5% defined fetal bovine serum (HyClone Laboratories Inc., cat. SH30070.03), ITS premix universal culture supplement [insulin (5 microg/mL), transferrin (5 microg/mL), and selenious acid (5 ng/mL)] […]

## Cc1ccccc1N=Nc1ccc(NC(=O)c2ccnn2C)c(C)c1
Compound 0.1 µM
  viability, T/C: 103% [middle of 20 runs]
Compound 0.316 µM
  viability, T/C: 108% [middle of 20 runs]
Compound 1 µM
  viability, T/C: 110% [middle of 20 runs]
Compound 3.16 µM
  viability, T/C: 113% [middle of 20 runs]
Compound 10 µM
  viability, T/C: 105% [middle of 20 runs]
Compound alone, run of 08/22/2022
  pIC50: < 5.00

## COc1cc(C2c3cc4c(cc3C(OC3OC5COC(C)OC5C(O)C3O)C3COC(=O)C23)OCO4)cc(OC)c1O (stereo unspecified) + CC(CO)NC(=O)c1cc(-c2ccc(Cl)cc2)nn(-c2cnn(C)c2)c1=O
Curve of first compound, second compound 0.1 µM
  pIC50: 5.40
Curve of first compound, second compound 0.316 µM
  pIC50: 5.41
Curve of first compound, second compound 1 µM
  pIC50: 5.26
Curve of first compound, second compound 3.16 µM
  pIC50: 5.41
Curve of first compound, second compound 10 µM
  pIC50: 5.51
Second compound 0.1 µM, first compound 0.0316 µM
  viability, T/C: 106%
Second compound 0.1 µM, first compound 0.1 µM
  viability, T/C: 106%
Second compound 0.1 µM, first compound 0.316 µM
  viability, T/C: 100%
Second compound 0.1 µM, first compound 1 µM
  viability, T/C: 82.8%
Second compound 0.1 µM, first compound 3.16 µM
  viability, T/C: 52.7%
Second compound 0.1 µM, first compound 10 µM
  viability, T/C: 38.1%
Second compound 0.316 µM, first compound 0.0316 µM
  viability, T/C: 105%
Second compound 0.316 µM, first compound 0.1 µM
  viability, T/C: 109%
Second compound 0.316 µM, first compound 0.316 µM
  viability, T/C: 101%
Second compound 0.316 µM, first compound 1 µM
  viability, T/C: 86%
Second compound 0.316 µM, first compound 3.16 µM
  viability, T/C: 52.7%
Second compound 0.316 µM, first compound 10 µM
  viability, T/C: 36.6%
Second compound 1 µM, first compound 0.0316 µM
  viability, T/C: 115%
Second compound 1 µM, first compound 0.1 µM
  viability, T/C: 112%
Second compound 1 µM, first compound 0.316 µM
  viability, T/C: 107%
Second compound 1 µM, first compound 1 µM
  viability, T/C: 84.9%
Second compound 1 µM, first compound 3.16 µM
  viability, T/C: 59.2%
Second compound 1 µM, first compound 10 µM
  viability, T/C: 40.3%
Second compound 3.16 µM, first compound 0.0316 µM
  viability, T/C: 98.9%
Second compound 3.16 µM, first compound 0.1 µM
  viability, T/C: 102%
Second compound 3.16 µM, first compound 0.316 µM
  viability, T/C: 98%
Second compound 3.16 µM, first compound 1 µM
  viability, T/C: 71.4%
Second compound 3.16 µM, first compound 3.16 µM
  viability, T/C: 56.2%
Second compound 3.16 µM, first compound 10 µM
  viability, T/C: 37.4%
Second compound 10 µM, first compound 0.0316 µM
  viability, T/C: 96.1%
Second compound 10 µM, first compound 0.1 µM
  viability, T/C: 97.1%
Second compound 10 µM, first compound 0.316 µM
  viability, T/C: 82.6%
Second compound 10 µM, first compound 1 µM
  viability, T/C: 63.5%
Second compound 10 µM, first compound 3.16 µM
  viability, T/C: 52.7%
Second compound 10 µM, first compound 10 µM
  viability, T/C: 40.1%
